≈ marks a conversion by molar mass, not a printed value. Where two headings read alike, the source gives them in different places. One block for each compound: values may come before it.
Tests used:
Escherichia coli NC101 = assay: Bacterial MIC assay (broth dilution); format: cell-based; conditions: read-out: MICs by compound
Method: (§1) MICs of compounds against different bacterial species were determined using a modified version of a broth microdilution protocol which has been previously reported.^1 Briefly, cultures of each species indicated were inoculated from frozen stocks in deoxygenated Wilkins-Chalgren Anaerobic Medium (WCAM) inside of an anerobic chamber with an 92.5% N2/5% CO2/2.5% H2 atmosphere. Cultures were grown for 24-48 hours in a 37° C. incubator at which point an OD600-measurement was taken for each culture and was accordingly diluted in fresh WCAM to an equivalent of OD600=0.01. Diluted cultures were then distributed into the wells of a clear, flat-bottom 384-well plate and the compound of interest was added to a final DMSO concentration of 2% (or DMSO only for positive controls). […] mineral oil (Millipore Sigma) was deposited on top of the cultures and plates were covered with a clear adhesive plate seal. Plates were incubated at 37° C. for 16 hours, at which point the OD600 of all wells was recorded on a SpectraMax M2 plate reader (Molecular Devices).

Klebsiella oxytoca = assay: Bacterial MIC assay (broth dilution); format: cell-based; conditions: read-out: MICs by compound
Lactobacillus rhamnosus = assay: Bacterial MIC assay (broth dilution); format: cell-based; conditions: Lacticaseibacillus rhamnosus, read-out: MICs by compound
Enterococcus faecalis = assay: Bacterial MIC assay (broth dilution); format: cell-based; conditions: read-out: MICs by compound
Bifidobacterium longum = assay: Bacterial MIC assay (broth dilution); format: cell-based; conditions: read-out: MICs by compound
purified ClbP = purified ClbP (Escherichia coli, UniProt Q0P7K6); assay: ClbP fluorescence activity assay (in vitro); format: biochemical, Escherichia coli CFT073; conditions: for speed of reaching maximum potency, in words: slow-binding inhibition assay, 100 nM
Excerpt: Constructs and protein purification for in vitro assays. ClbP constructs described in this publication were derived from a previously described plasmid containing the Escherichia coli CFT073 ClbP sequence (GenBank ID: NP_754344.1) inserted between the NdeI and XhoI restriction sites of pET29b (Addgene plasmid #48244).^14 All in vitro experiments used a construct bearing a C-terminal 10×His tag. This longer polyhistidine-tag was obtained by extension of the previously described 6×His tag through site-directed mutagenesis. All site-directed mutations were introduced using the Quikchange mutagenesis protocol (Stratagene) and confirmed by Sanger DNA sequencing of the whole open reading frame. Plasmids were transformed into chemically competent C41(DE3) (Lucigen) cells and proteins were isolated as previously described.^34
ClbP fluorescence activity assay (in vitro). Assays were performed in a buffer containing 50 mM Tris, 200 mM NaCl, 0.02% w/v DDM at pH 8.0 with 25 nM purified ClbP and 25 μM fluorogenic substrate in a total volume of 20 μL.^34 Purified ClbP was defrosted on ice from stocks stored at −80° C. Stocks were diluted to 50 nM enzyme in assay buffer in the wells of a black, flat-bottom 384-well plate and the appropriate inhibitor in DMSO or DMSO was added to a final concentration of 1%. For experiments testing different inhibitor concentrations, reactions were allowed to sit for 1 hour at room temperature. For experiments testing different preincubation times, the inhibitor in DMSO was added to each reaction X minutes before initiating the reaction, where X is the time indicated on the x-axis for that sample. For experiments to test whether hydrolysis of the boronic ester was rate-limiting, the inhibitor was added to buffer with no enzyme present and allowed to sit at room temperature for the time indicated before adding the enzyme. In all cases, reactions were initiated by the addition of 10 μL, of buffer containing the 50 μM fluorogenic substrate to achieve a final concentration of 25 μM and pipetting once with a multichannel pipette to mix. Reaction progress was monitored in a plate reader (Bio-Tek Synergy HTX multimode plate reader) with an excitation filter of 360/40 nm and an emission filter of 440/20 nm. “% activity” was determined based on the measured relative fluorescence units (RFU) of each condition after 1 hour using the following formula: […]

[1] = target: E. coli BL21 overexpressing ClbP (Escherichia coli, UniProt Q0P7K6); assay: ClbP fluorescence activity assay (live cells); format: cell-based
Method: ClbP fluorescence activity assay (live cells). One 5 mL starter culture each E. coli BL21 pET-29b-ClbP and pET-29b-ClbP-S95A were inoculated from frozen stocks and grown overnight at 37° C. in LB medium supplemented with 50 μg/ml kanamycin (LB+kan). Overnight cultures were diluted 1:100 in fresh LB+kan and incubated at 37° C. to an OD600 of 0.3, at which point protein expression was induced by the addition of 500 μM isopropyl β-D-1-thiogalactopyranoside (IPTG) and cultures were moved to 15° C. for 4 hours. Cultures were then aliquoted in a black 384-well plate and the appropriate concentration of inhibitor was added as a DMSO stocks to a final concentration of 1% DMSO in a volume of 30 μL. Reactions were initiated by the addition of 10 μL of LB+kan+IPTG containing the fluorogenic substrate (final concentration=100 μM). Plastes were incubated at 25° C. with intermittent shaking while taking regular fluorescence measurements in a Bio-Tek Synergy HTX multimode plate reader with an excitation filter of 360/40 nm and an emission filter of 440/20 nm. “% activity” was determined based on the formula above using RFU measurements after 7 hours.

[2] = system: a variety of bacterial strains from common gut phyla, including E. coli; assay: Turbidity MIC assay, all strains together; format: cell-based; conditions: Escherichia coli; all strains tested; upper limit tested 200 μM; read-out: MICs in liquid culture
Excerpt: Compound 3 is an inhibitor of colibactin-associated genotoxicity. Since colibactin is produced in the context of the gut microbiota, it is essential to understand how 3 can affect other members of this community and whether it remains an effective inhibitor under these conditions. […] A turbidity assay was used to determine minimum inhibitory concentrations (MICs) in liquid culture of 1-4 against a variety of bacterial strains from common gut phyla, including E. coli (Table 3).
as §1

ClbP = assay: LC-MS quantitation of N-myristoyl-D-Asn produced by pks+ E. coli; format: cell-based, E. coli BW25113 BACpks; conditions: pks+ E. coli (BW pks), versus DMSO
Method: LC-MS quantitation of N-myristoyl-D-Asn produced by pks^+ E. coli. One 5 mL starter culture each of E. coli BW25113 BACpks and E. coli BW25113 BACpksΔclbP was inoculated from frozen stocks and grown overnight at 37° C. in LB medium supplemented with 35 μg/ml chloramphenicol (LB+cam). Overnights were diluted 1:100 in fresh LB+cam+1% DMSO with the appropriate concentration of inhibitor and grown for 20 hours at 37° C. in a deep well plate in a shaking incubator. A 500 μL aliquot was taken from each sample, flash frozen in liquid nitrogen and lyophilized to dryness. Lyophilized pellets were extracted with 500 μL LC-MS grade methanol which contained 100 nM d27-N-myristoyl-D-asparagine as an internal standard, prepared as previously described, and vortexed for 30 seconds. After centrifugation at 16,500×g for 10 minutes in a tabletop microcentrifuge, supernatants were transferred to fresh 1.5 mL tubes and stored at −20° C. overnight. Samples were centrifuged again, and the supernatants analyzed by LC-MS/MS on a Waters Xevo TQ-S UPLC-triple quadrupole mass spectrometer using an Agilent Poroshell 120 EC-C18 column (2.7 μm, 4.6 mm×50 mm). […]

[3] = system: FANCD2 in HeLa cell extracts; assay: Western blot for FANCD2; format: cell-based, human; conditions: 0.5 μg/mL mitomycin C or 7.5 μg/mL cisplatin, 4 hours, no bacteria
Method: Western Blot for FANCD2. Infections were carried out as described above. For conditions which involved other small molecules, no bacteria were introduced during the infection and cells were treated with either 0.5 μg/mL mitomycin C (MMC) or 7.5 μg/mL cisplatin under the same conditions for 4 hours. 20 hours after infection, cells were lysed directly in the culture wells (Lysis buffer: 50 mM Tris, (pH 8.0), 150 mM NaCl, 1% Triton X-100, 0.5% Sodium deoxycholate, 0.05% sodium dodecylsulfate, 1 mM MgSO4, SIGMAFAST Protease inhibitor mix, 100 U/mL benzonase (Millipore-Sigma). Lysates were then spun down at 16,000×g to remove particulates and the supernatant was mixed 1:1 with 2X Laemmli sample buffer (Bio-Rad) containing 50 mg/mL dithiothreitol (DTT). Samples were then heated at 70° C. for 10 minutes and run on an SDS-PAGE gel (3-8% Tris-Acetate Novex gel, Invitrogen) at 150 V for 1.5 hours at 4° C. Bands were then transferred to PVDF membranes (100 V, 1 hour at 4° C.) and blocked with 10% skim milk powder in TBST buffer at 4° C. overnight. Blots were probed sequentially with either mouse anti-actin (1.5 μg/mL) or mouse anti-FANCD2 (0.1 μg/mL) primary antibodies (Thermo Fisher Scientific, Catalog #MA511869 and MA123347), followed by a peroxidase-conjugated goat anti-mouse secondary antibody (Jackson ImmunoResearch product 115-035-003, 0.08 μg/mL). Each probing step was conducted for 90 minutes at room temperature n 2.5% skim milk powder in TBST. Before imaging, blots were washed 3×15 minutes each in TBST […]. Blots were imaged using the SuperSignal™ West Pico PLUS Chemiluminescent Substrate (Thermo Fisher Scientific) kit following the manufacturer's instructions and imaged using an Azure Biosystems c300 imager.

[4] = anaerobic, OD600 after 15 hours

- MIC (Escherichia coli NC101; Escherichia coli NC101, anaerobic, OD600 after 15 hours): 25 µM (≈ 8.08 µg/mL)
- MIC (Klebsiella oxytoca; [4]): 6.25 µM (≈ 2.02 µg/mL)
- MIC (Lactobacillus rhamnosus; Lactobacillus rhamnosus, anaerobic, OD600 after 15 hours): 25 µM (≈ 8.08 µg/mL)
- MIC (Enterococcus faecalis; [4]): 50 µM (≈ 16.2 µg/mL)
- MIC (Bifidobacterium longum; [4]): 12.5 µM (≈ 4.04 µg/mL)
SMILES: O=C(N[C@H](CO)[C@H](O)c1ccc([N+](=O)[O-])cc1)C(Cl)Cl [CAM, Chloramphenicol, reference compound]

SMILES: CCCCCC(=O)N[C@H](CC(N)=O)B1OC(C)(C)C(C)(C)O1 [Compound 1]
- IC50 (purified ClbP): 40 nM
- IC50 [1]: 5.6 nM
- MIC (Escherichia coli NC101; Escherichia coli, NC101, 15 h): > 200 µM
- MIC (Klebsiella oxytoca; 15 h): > 200 µM
- MIC (Lactobacillus rhamnosus; 15 h): > 200 µM
- MIC (Enterococcus faecalis; 15 h): > 200 µM
- MIC (Bifidobacterium longum; 15 h): > 200 µM
- MIC [2]: > 200 µM

SMILES: CC1(C)OB([C@@H](CC(N)=O)NC(=O)c2ccc3ccccc3c2)OC1(C)C [Compound 2]
- IC50 (purified ClbP): 34 nM
- speed of reaching maximum potency, in words (purified ClbP): achieved their maximum potency faster than compound 4
- IC50 [1]: 7.2 nM
- MIC (Escherichia coli NC101; Escherichia coli, NC101, 15 h): > 200 µM
- MIC (Klebsiella oxytoca; 15 h): > 200 µM
- MIC (Lactobacillus rhamnosus; 15 h): > 200 µM
- MIC (Enterococcus faecalis; 15 h): > 200 µM
- MIC (Bifidobacterium longum; 15 h): > 200 µM
- MIC [2]: > 200 µM

SMILES: CC1(C)OB([C@@H](CC(N)=O)NC(=O)c2ccccc2)OC1(C)C [Compound 4]
- IC50 (purified ClbP): 69 nM
- speed of reaching maximum potency, in words (purified ClbP): showed a significant lag
- IC50 [1]: 27 nM
- quantity of N-myristoyl-D-Asn prodrug released (ClbP): slightly lower potency than the others
- MIC (Escherichia coli NC101; Escherichia coli, NC101, 15 h): > 200 µM
- MIC (Klebsiella oxytoca; 15 h): > 200 µM
- MIC (Lactobacillus rhamnosus; 15 h): > 200 µM
- MIC (Enterococcus faecalis; 15 h): > 200 µM
- MIC (Bifidobacterium longum; 15 h): > 200 µM
- MIC [2]: > 200 µM

SMILES: N.N.[Cl][Pt][Cl] [cisplatin, reference compound]
- abundance of FANCD2-Ub in HeLa cells [3]: increase in abundance of FANCD2-Ub

SMILES: CO[C@@]12[C@H](COC(N)=O)C3=C(C(=O)C(C)=C(N)C3=O)N1C[C@@H]1N[C@@H]12 [mitomycin C, reference compound]
- abundance of FANCD2-Ub in HeLa cells [3]: increase in abundance of FANCD2-Ub

From US12115176B2, “Methods and compositions relating to ClbP inhibition” (PRESIDENT AND FELLOWS OF HARVARD COLLEGE, priority 2021, dated 2024)
